Test results reported in patent US10100027B2, “Benzofuran analogue as NS4B inhibitor” (priority 2014, dated 2018).

What was measured:
Format in all cases: cell-based
[1] = system: HCV genotype 1b (HCV-1b) replicon cells; test: HCV genotype 1b replicon cell assay (luciferase, Bright-Glo); settings: Hepatitis C virus, 72 h, HCV-1b (Con1) replicon cells, 3 days
Protocol: (§1) The EC50 and CC50 values of anti-HCV compounds were determined by HCV genotype 1a (HCV-1a) and 1b (HCV-1b) stable transfected replication (replicon) cells. The source of genotype 1a replicon is H77 clones containing K1691R, K2040R and S2204I adaptive mutations. The source of genotype 1b replicon is Con1 clones containing E1202G, T1280I and K1846T adaptive mutations.
(§2) HCV 1a (HCV-1a) and 1b (HCV-1b) gene subtype replicon system contains the related HCV gene subtype non-structural protein gene, G418 resistance gene NEO and luciferase gene, which results in that HCV related protein and luciferase can be stably expressed in cells. By detecting the level of expression of luciferase gene, the level of HCV replication can be determined. Therefore, the system is used as a model for screening the activity of anti-HCV compound in vitro.
(§3) The compound powder was dissolved in 100% DMSO. Then the compound was diluted 5 times with 6 points, and added into the cell plate with Echo liquid handler. Ensure the final concentration of DMSO was 0.5%. Each compound was tested in duplicate.
(§4) 4) Diluting cells to 8×10^4 cells/mL with the culture medium, adding the diluted cells into the compound-containing 96-well plate (Greiner, Cat. #655090) (100 μL/well, 8000 cells/well) with automatic liquid separator (Thermo Scientific). Then place into a 37° C., 5% CO2 incubator for 3 days. Cell control well: no compound, only containing 0.5% DMSO.
(§5) 6) Then adding luciferase substrate Bright-Glo, after incubation for 5 minutes, detecting the luciferase activity by microplate reader Envison (wavelength>700 nm); analyzing the anti-HCV inhibitory activity of the compounds according to luminescence data, which was used to calculate EC50 values.
(§6) The EC50 or CC50 values were obtained by nonlinear fitting regression on inhibition percentage (inh %) data with GraphPad Prism software.

[2] = system: HCV genotype 1a (HCV-1a) replicon cells; test: HCV genotype 1a replicon cell assay (luciferase, Bright-Glo); settings: Hepatitis C virus, 72 h, HCV-1a (H77) replicon cells, 3 days
Protocol: as §1, §2, §3, §4, §5, §6

[3] = Cytotoxicity in HCV replicon cells (Cell Titer-fluor)
Protocol: as §1, §3, §4
5) Adding fluorescence substrate Cell Titer-fluor to the cell well, after incubation for 30 minutes, detecting the signal by microplate reader Envison (Ex at 405 nm and read at 515 nm). The effect of the compounds on the cytotoxicity of HCV replicon cells was analyzed according to the fluorescence data, which was used to calculate the CC50 values.
as §6

SMILES	EC50 [1] [nM]	EC50 [2] [nM]	CC50 at 3 days [3] [nM]
CN(C(=O)C1CCN(C(=O)c2oc3c(C(F)(F)F)cc(C4CC4)cc3c2Cl)CC1)c1ccc(F)cn1 [YD_0329]	100 to 1000	100 to 1000	> 3000
O=C(c1oc2c(C(F)(F)F)cc(C3CC3)cc2c1Cl)N1CCC(C(=O)N2CC(O)C2)CC1 [YD_0356]	0.1 to 100	0.1 to 100	> 3000
O=C(c1oc2c(C(F)(F)F)cc(C3CC3)cc2c1Cl)N1CCN(C23CC(C2)C3)C(=O)C1 [YD_0253]	0.1 to 100	100 to 1000	> 3000
O=C(NC12CCC(c3nnco3)(CC1)CC2)c1oc2c(C(F)(F)F)cc(C3CC3)cc2c1Cl [YD_0122]	100 to 1000	0.1 to 100	> 3000
O=C(c1oc2c(C(F)(F)F)cc(C3CC3)cc2c1Cl)N1CCN(C23CCC(CC2)CC3)C(=O)C1 [YD_0280]	100 to 1000	100 to 1000	> 3000
CC(C)N(C)C(=O)C1CCN(C(=O)c2oc3c(C(F)(F)F)cc(C4CC4)cc3c2Cl)CC1 [YD_0302]	1000 to 5000	100 to 1000	> 3000
CC1CN(C(=O)C2CCN(C(=O)c3oc4c(C(F)(F)F)cc(C5CC5)cc4c3Cl)CC2)C1 [YD_0350]	100 to 1000	100 to 1000	> 3000
CC1CN(C(=O)C2CCN(C(=O)c3oc4c(C(F)(F)F)cc(C5CC5)cc4c3Cl)CC2)CCO1 (stereo not drawn) [YD_0323]	100 to 1000	100 to 1000	> 3000
O=C(c1oc2c(C(F)(F)F)cc(C3CC3)cc2c1Cl)N1CCC(C(=O)N2CCC2)CC1 [YD_0313]	0.1 to 100	0.1 to 100	> 3000
O=C(O)C1CCN1C(=O)C1CCN(C(=O)c2oc3c(C(F)(F)F)cc(C4CC4)cc3c2Cl)CC1 (stereo not drawn) [YD_0351]	1000 to 5000	100 to 1000	> 3000
Cc1nnc(C23CCC(NC(=O)c4oc5c(C(F)(F)F)cc(C6CC6)cc5c4C)(CC2)CC3)o1 [YD_0058]	100 to 1000		> 3000
CCCc1cc(C(F)(F)F)c2oc(C(=O)NC34CCC(c5nnc(C)o5)(CC3)CC4)c(Cl)c2c1 [YD_0060]	100 to 1000		> 3000
CCN(C)C(=O)C1CCN(C(=O)c2oc3c(C(F)(F)F)cc(C4CC4)cc3c2Cl)CC1 [YD_0304]	0.1 to 100	100 to 1000	> 3000
O=C1NN(C(=O)c2nc3c(C(F)(F)F)cc(C4CC4)cn3c2Cl)CCN1CC(F)(F)F [YA_0361]			> 3000
O=C(c1oc2c(F)cc(C3CC3)cc2c1Cl)N1CCN(N2CCOC2=O)CC1 [YD_0245]	0.1 to 100	0.1 to 100	> 3000
O=C(c1oc2c(C(F)(F)F)cc(C3CC3)cc2c1Cl)N1CCC(C(=O)N2CC(CO)C2)CC1 [YD_0355]	1000 to 5000	100 to 1000	> 3000
O=C(c1oc2c(C(F)(F)F)cc(C3CC3)cc2c1Cl)N1CCCN(N2CCOC2=O)CC1 [YD_0279]	0.1 to 100	0.1 to 100	> 3000
O=C(c1nc2c(C(F)(F)F)cc(C3CC3)cn2c1Cl)N1CCN(C2CC(F)(F)C2)C(=O)N1 [YA_0367]	0.1 to 100	0.1 to 100	> 3000
Cc1nnc(C23CCC(NC(=O)c4oc5c(C(F)(F)F)cc(C6CC6)cc5c4Br)(CC2)CC3)o1 [YD_0057]	100 to 1000		> 3000
O=C(c1oc2c(C(F)(F)F)cc(C3CC3)cc2c1Cl)N1CCN(N2CCOC2=O)CC1 [YD_0214]	0.1 to 100	0.1 to 100	> 3000

SMILES	EC50 [1] [nM]	EC50 [2] [nM]	CC50 at 3 days [3] [nM]
O=C(c1nn2c(C(F)(F)F)cc(C3CC3)cc2c1Cl)N1CCN(C2CCCC2)C(=O)N1 [YH_0369]	1000 to 5000	100 to 1000	> 3000
CC(C)c1cc(C(F)(F)F)c2oc(C(=O)N3CCN(C4CCC(O)CC4)C(=O)C3)cc2c1 (stereo not drawn) [YD_0044]	0.1 to 100		> 3000
CN1CCN(C(=O)C2CCN(C(=O)c3oc4c(C(F)(F)F)cc(C5CC5)cc4c3Cl)CC2)CC1 [YD_0305]	1000 to 5000	100 to 1000	> 3000
COC1(C)CN(C(=O)C2CCN(C(=O)c3oc4c(C(F)(F)F)cc(C5CC5)cc4c3Cl)CC2)C1 [YD_0344]	1000 to 5000	100 to 1000	> 3000
CC1CN(C)CCN1C(=O)C1CCN(C(=O)c2oc3c(C(F)(F)F)cc(C4CC4)cc3c2Cl)CC1 (stereo not drawn) [YD_0321]	1000 to 5000	100 to 1000	> 3000
NC(=O)C1CN(C(=O)C2CCN(C(=O)c3oc4c(C(F)(F)F)cc(C5CC5)cc4c3Cl)CC2)C1 [YD_0353]	1000 to 5000	100 to 1000	> 3000
N#Cc1c(C(=O)N2CCN(N3CCOC3=O)CC2)oc2c(C(F)(F)F)cc(C3CC3)cc12 [YD_0250]	0.1 to 100	0.1 to 100	> 3000
CN(C)C1CN(C(=O)C2CCN(C(=O)c3oc4c(C(F)(F)F)cc(C5CC5)cc4c3Cl)CC2)C1 [YD_0343]	1000 to 5000	100 to 1000	> 3000
O=C(c1oc2c(C(F)(F)F)cc(C3CC3)cc2c1Cl)N1CCN([C@H]2CC[C@H](O)CC2)C(=O)N1 [YD_0365]	0.1 to 100	0.1 to 100	> 3000
O=C(c1oc2c(C(F)F)cc(C3CC3)cc2c1Cl)N1CCN(N2CCOC2=O)CC1 [YD_0278]	0.1 to 100	0.1 to 100	> 3000
O=C(c1oc2c(C(F)(F)F)cc(C3CC3)cc2c1Cl)N1CCC(=O)N(C2CCCC2)CC1 [YD_0330]	0.1 to 100	100 to 1000	> 3000
CC1(C(N)=O)CN(C(=O)C2CCN(C(=O)c3oc4c(C(F)(F)F)cc(C5CC5)cc4c3Cl)CC2)C1 [YD_0348]	1000 to 5000	100 to 1000	> 3000
NC1CN(C(=O)C2CCN(C(=O)c3oc4c(C(F)(F)F)cc(C5CC5)cc4c3Cl)CC2)C1 [YD_0346]	100 to 1000	100 to 1000	> 3000
O=C(Nc1ccc(Cl)cn1)C1CCN(C(=O)c2oc3c(C(F)(F)F)cc(C4CC4)cc3c2Cl)CC1 [YD_0327]	1000 to 5000	100 to 1000	> 3000
O=C1CN(N2CCN(C(=O)c3oc4c(C(F)(F)F)cc(C5CC5)cc4c3Cl)CC2)C(=O)N1 [YD_0331]	0.1 to 100	0.1 to 100	> 3000
CC1(C(=O)N2CC(O)C2)CCN(C(=O)c2oc3c(C(F)(F)F)cc(C4CC4)cc3c2Cl)CC1 [YD_0318]	1000 to 5000	100 to 1000	> 3000
O=C(c1nc2c(C(F)(F)F)cc(C3CC3)cn2c1Cl)N1CCN(C2CC2)C(=O)N1 [YA_0362]			> 3000
O=C(c1nc2c(C(F)(F)F)cc(C3CC3)cn2c1Cl)N1CCN([C@H]2C[C@H](O)C2)C(=O)N1 [YA_0359]			> 3000
Cc1nnc(C23CCC(NC(=O)c4cc5cc(C(C)C)cc(C(F)(F)F)c5o4)(CC2)CC3)o1 [YD_0019]	100 to 1000		> 3000
Cc1nnc(C23CCC(NC(=O)c4oc5c(C(F)(F)F)cc(C6CC6)cc5c4Cl)(CC2)CC3)o1 [YD_0056]	1000 to 5000		> 3000
